Laboratory results published in patent EP4810052A2, “HCRHR2 SELECTIVE POLYPEPTIDES” (Gubra A/S, priority 2023, dated 2026).
Where two headings read alike, the source gives them in different places. Starred links: 1 amine or outer side, 2 acyl side, 3 side chain; linkers in the order of their positions; H or OH if unused. Non-standard residues stand in square brackets, D forms with d. Residues, ends and D or L forms follow the SMILES beside them. Groups on a side chain read outwards from the residue. *: point of attachment. C20 diacid = O=C(O)CCCCCCCCCCCCCCCCCCC(=O)*; γGlu = O=C(O)[C@H](CCC(=O)[*:2])N[*:1]; Nle = CCCC[C@H](N)C(=O)O; AEEA = NCCOCCOCC(=O)O; Aib = CC(C)(N)C(=O)O

Columns and labels:
hCRHR2 = target: T1, hCRHR2 (Homo sapiens, UniProt Q13324); assay: HTRF cAMP assay, determination of hCRHR2 potency (peptide libraries 5 conc., purified peptides 11 conc.); assay type: cell-based
T1 sequence (Q13324 1-411): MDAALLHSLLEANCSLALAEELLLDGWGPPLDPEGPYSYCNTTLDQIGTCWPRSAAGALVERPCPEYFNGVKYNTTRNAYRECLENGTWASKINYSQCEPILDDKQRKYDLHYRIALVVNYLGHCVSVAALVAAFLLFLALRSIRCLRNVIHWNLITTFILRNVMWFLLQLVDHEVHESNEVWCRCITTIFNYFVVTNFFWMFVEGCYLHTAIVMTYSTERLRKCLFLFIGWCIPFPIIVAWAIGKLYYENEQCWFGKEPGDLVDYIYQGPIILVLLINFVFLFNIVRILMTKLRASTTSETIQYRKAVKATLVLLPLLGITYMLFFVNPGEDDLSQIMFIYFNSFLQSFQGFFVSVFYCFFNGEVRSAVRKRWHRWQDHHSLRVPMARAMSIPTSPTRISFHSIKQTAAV
How it was run: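 Frozen stocks of hCRHR2-expressing CHO-K1 cells, thawed just before testing, received peptide agonists in suspension; cAMP quantified by competitive HTRF immunoassay, with curves fitted by nonlinear regression (variable slope) for EC50.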

hCRHR1 = target: T2, hCRHR1 (Homo sapiens, UniProt P34998); assay: HTRF cAMP assay, determination of hCRHR1 potency (peptide libraries 5 conc., purified peptides 11 conc.); assay type: cell-based
T2 sequence (P34998 24-415): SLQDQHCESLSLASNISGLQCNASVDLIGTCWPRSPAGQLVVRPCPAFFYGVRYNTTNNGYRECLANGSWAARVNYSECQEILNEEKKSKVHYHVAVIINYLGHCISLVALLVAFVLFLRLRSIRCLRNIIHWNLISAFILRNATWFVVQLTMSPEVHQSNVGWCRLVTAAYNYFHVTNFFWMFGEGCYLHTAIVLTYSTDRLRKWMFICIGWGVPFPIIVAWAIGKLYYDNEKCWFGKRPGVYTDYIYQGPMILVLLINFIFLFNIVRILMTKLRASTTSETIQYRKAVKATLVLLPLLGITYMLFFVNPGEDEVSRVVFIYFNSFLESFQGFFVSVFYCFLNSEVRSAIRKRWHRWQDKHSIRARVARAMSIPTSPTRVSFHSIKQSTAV
How it was run: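 Cellular cAMP was read by time-resolved FRET between d2-labelled cAMP and cryptate anti-cAMP antibody. The cells were freshly thawed suspension CHO-K1 cells stably expressing human CRHR1.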

[1] = Thioflavin T fibril formation assay of purified peptides; assay type: physicochemical; design: key: Amyloid fibril formation detected by an increase in ThT fluorescence was denoted with "Yes"; samples without increasing ThT fluorescence hence not forming amyloid fibrils were denoted "No"
Description: Thioflavin T fibril formation assay: Peptides were dissolved as 267 µM in 50 mM phosphate buffer pH 7.5 for 2 h at room temperature on a rocking table. The samples were then divided into three replicates of 80 µl/well and mixed with 2 µl/well Thioflavin T (ThT)to a final concentration of 4 µM ThT in a black 384 well microplate with a clear bottom (Greiner #781096). The plate was inserted in a CLARIOstar Plus microplate reader (BMG Labtech) and fibril formation was measured as an increase in fluorescence emission at 480 nm (excitation at 450 nm) during 96 h at 40°C with cycles of 5 min rest and 5 min linearshaking at700 rpm.
Compounds were dissolved to 200 µM (ca 1.0 mg/ml) in 50 mM phosphate buffer with preparation and ThT assay performed as described in the "General procedure for determination of fibril formation of peptides." above. Furthermore, samples were adjusted to pH values as indicated below. Additional co-formulations of compounds with semaglutide were prepared by dissolving compounds to 200 µM in commercially available semaglutide drug product (Ozempic®); these co-formulations were adjusted to pH 7.4.

[2] = Chemical stability of purified peptides (RP-UHPLC main peak purity loss); assay type: physicochemical; conditions: for Chemical stability at pH 7.5 after 14 days at 40°C (% degradation): pH 7.5, 14 days
Description: Chemical stability was tested at a concentration of approximately of 1.0 mg/ml peptide in the following vehicles: 50 mM phosphate buffer pH 7.5. Dissolved samples were incubated for at least 2 h at room temperature on a rocking table. The main peak purity at time zero (T0) was determined using reversed phase chromatography. The samples were incubated at 40°C for 14 days (T14) and 28 days (T28). The samples were analyzed with reversed phase chromatography and size exclusion chromatography.
Reversed Phase chromatography was performed on a Thermo Dionex Ultimate UHPLC system with UV detection at 215 nm) and equipped with a Kinetex column (1.7 µm, C8, 100 Å, 150 x 2.1 mm (00F-4499-AN)). Analysis was performed by gradient elution with buffer A (0.1% TFA in 95:5 H2O:acetonitrile) and buffer B (0.1% TFA in 5:95 H2O: acetonitrile) at a column temperature of 50 °C (gradient used 25-55%B over 40 min. Flowrate was 0.5 mL/min. The main peak purity was determined from the integrated chromatogram as the area under the main peak relative to the total peak area. The purity loss was calculated as the difference between the T0 and T14 time point and/or as the difference between the T0 and T28 time point.
The chemical stability of selected peptides was evaluated at varying pH's at 40° C over 28 days. Samples were prepared and analysed as described in procedure with the addition of pH adjusting samples to the targets indicated below. As a comparator,r commercially available semaglutide drug product (Ozempic®, Novo Nordisk) was included in the sample set.

[3] = pH 7.5
[4] = Table 5, purified peptides, read-out: hCRHR2 EC50
[5] = Table 5, purified peptides, read-out: hCRHR1 EC50

Selectivity ratio (hCRHR1/ hCRHR2) (hCRHR2; hCRHR1-EC50/hCRHR2-EC50) | EC50 (hCRHR2; purified peptides, CHO-K1 cells stably expressing hCRHR2, cAMP HTRF, read-out: hCRHR2 EC50) [nM] | EC50 (hCRHR1; purified peptides, CHO-K1 cells stably expressing hCRHR1, cAMP HTRF, read-out: hCRHR1 EC50) [µM] | Fibrillation (pH 7.5) ([1]; pH 7.5, ThT assay) | Chemical stability at pH 7.5 after 28 days at 40°C (% degradation) ([2]; pH 7.5, 40°C, 28 days, second value of cell) [%] | Solubility pH 7.5, target conc. =10 mg/mL (measured mg/mL) [3] [mg/mL] | Selectivity ratio (hCRHR1/ hCRHR2) (hCRHR2; Table 5) | EC50 (hCRHR2; [4]) [nM] | EC50 (hCRHR1; [5]) [µM] | Fibrillation (pH 7.5) ([1]; pH 7.5) | Chemical stability at pH 7.5 after 14 days at 40°C (% degradation) ([2]; 40°C) [%] | Chemical stability at pH 7.5 after 28 days at 40°C (% degradation) ([2]; pH 7.5, 28 days, 40°C) [%] | EC50 (hCRHR2; library peptides, matched molecular pairs L vs Nle in position X^38, read-out: Potency hCRHR2 pEC50 (converted)) [nM] | EC50 (hCRHR1; library peptides, matched molecular pairs L vs Nle in position X^38, read-out: Potency hCRHR1 pEC50 (converted)) [µM] | Compound
>2000 | 2.5 | > 5 | No | -23 | 9.8 |  |  |  |  |  |  |  |  | CC[C@H](C)[C@H](NC(=O)[C@H](CCC(=O)O)NC(=O)[C@H](C)NC(=O)[C@H](CC(N)=O)NC(=O)[C@@H](NC(=O)[C@H](CCCCNC(=O)COCCOCCNC(=O)COCCOCCNC(=O)CC[C@H](NC(=O)CC[C@H](NC(=O)CCCCCCCCCCCCCCCCCCC(=O)O)C(=O)O)C(=O)O)NC(=O)[C@H](C)NC(=O)[C@H](CCC(N)=O)NC(=O)[C@H](CCC(=O)O)NC(=O)[C@H](CCCNC(=N)N)NC(=O)[C@H](C)NC(=O)[C@H](C)NC(=O)[C@H](CCCNC(=N)N)NC(=O)[C@H](C)NC(=O)[C@H](CCCNC(=N)N)NC(=O)[C@H](C)NC(=O)[C@H](CCC(N)=O)NC(=O)[C@H](CCC(=O)O)NC(=O)[C@H](CC(C)C)NC(=O)[C@H](CC(C)C)NC(=O)[C@@H](NC(=O)[C@H](CCC(N)=O)NC(=O)[C@H](CC(C)C)NC(=O)[C@H](CC(C)C)NC(=O)CNC(=O)[C@@H](NC(=O)[C@@H]1CCCN1C(=O)[C@@H](NC(=O)[C@H](CC(=O)O)NC(=O)[C@H](CC(C)C)NC(=O)[C@H](CO)NC(=O)[C@H](CC(C)C)NC(=O)[C@@H](NC(=O)[C@@H]1CCCN1)C(C)C)C(C)C)[C@@H](C)CC)[C@@H](C)CC)[C@@H](C)O)C(=O)N[C@@H](CC(C)C)C(=O)N[C@@H](C)C(=O)N[C@@H](CCC(=O)O)C(=O)N[C@H](C(N)=O)C(C)C [SEQ ID NO: 7] (H-PVLSLDVPIGLLQILLEQARARAAREQAK([AEEA-AEEA-γGlu-γGlu-C20 diacid])TNAEILAEV-NH2)
 |  |  |  |  | 10 | >7463 | 0.67 | > 5 | No | -1 | -3 |  |  | CCCC[C@H](NC(=O)[C@@H](NC(=O)[C@H](CCC(=O)O)NC(=O)[C@H](C)NC(=O)[C@H](CC(N)=O)NC(=O)C(C)(C)NC(=O)[C@H](CCCCNC(=O)COCCOCCNC(=O)COCCOCCNC(=O)CC[C@H](NC(=O)CC[C@H](NC(=O)CCCCCCCCCCCCCCCCCCC(=O)O)C(=O)O)C(=O)O)NC(=O)[C@H](C)NC(=O)[C@H](CCC(N)=O)NC(=O)[C@H](CCC(=O)O)NC(=O)[C@H](CCCNC(=N)N)NC(=O)[C@H](C)NC(=O)[C@H](C)NC(=O)[C@H](CCCNC(=N)N)NC(=O)[C@H](C)NC(=O)[C@H](CCCNC(=N)N)NC(=O)[C@H](C)NC(=O)[C@H](CCC(N)=O)NC(=O)[C@H](CCC(=O)O)NC(=O)[C@H](CC(C)C)NC(=O)[C@H](CC(C)C)NC(=O)[C@@H](NC(=O)[C@H](CCC(N)=O)NC(=O)[C@H](CC(C)C)NC(=O)[C@H](CC(C)C)NC(=O)CNC(=O)[C@@H](NC(=O)[C@@H]1CCCN1C(=O)[C@@H](NC(=O)[C@H](CC(=O)O)NC(=O)[C@H](CC(C)C)NC(=O)[C@H](CO)NC(=O)[C@H](CC(C)C)NC(=O)[C@@H](NC(=O)[C@@H](N)[C@@H](C)CC)C(C)C)C(C)C)[C@@H](C)CC)[C@@H](C)CC)[C@@H](C)CC)C(=O)N[C@@H](C)C(=O)N[C@@H](CCC(=O)O)C(=O)N[C@H](C(N)=O)[C@@H](C)CC [compound 236] (H-IVLSLDVPIGLLQILLEQARARAAREQAK([AEEA-AEEA-γGlu-γGlu-C20 diacid])[Aib]NAEI[Nle]AEI-NH2)
 |  |  |  |  | 10 | >9259 | 0.54 | > 5 | No | -0.5 | -8.8 | 0.2 | 3.98 | CCCC[C@H](NC(=O)[C@@H](NC(=O)[C@H](CCC(=O)O)NC(=O)[C@H](C)NC(=O)[C@H](CC(N)=O)NC(=O)[C@@H](NC(=O)[C@H](CCCCNC(=O)COCCOCCNC(=O)COCCOCCNC(=O)CC[C@H](NC(=O)CC[C@H](NC(=O)CCCCCCCCCCCCCCCCCCC(=O)O)C(=O)O)C(=O)O)NC(=O)[C@H](C)NC(=O)[C@H](CCC(N)=O)NC(=O)[C@H](CCC(=O)O)NC(=O)[C@H](CCCNC(=N)N)NC(=O)[C@H](C)NC(=O)[C@H](C)NC(=O)[C@H](CCCNC(=N)N)NC(=O)[C@H](C)NC(=O)[C@H](CCCNC(=N)N)NC(=O)[C@H](C)NC(=O)[C@H](CCC(N)=O)NC(=O)[C@H](CCC(=O)O)NC(=O)[C@H](CC(C)C)NC(=O)[C@H](CC(C)C)NC(=O)[C@@H](NC(=O)[C@H](CCC(N)=O)NC(=O)[C@H](CC(C)C)NC(=O)[C@H](CC(C)C)NC(=O)CNC(=O)[C@@H](NC(=O)[C@@H]1CCCN1C(=O)[C@@H](NC(=O)[C@H](CC(=O)O)NC(=O)[C@H](CC(C)C)NC(=O)[C@H](CO)NC(=O)[C@H](CC(C)C)NC(=O)[C@@H](NC(=O)[C@@H](N)[C@@H](C)CC)C(C)C)C(C)C)[C@@H](C)CC)[C@@H](C)CC)[C@@H](C)O)[C@@H](C)CC)C(=O)N[C@@H](C)C(=O)N[C@@H](CCC(=O)O)C(=O)N[C@H](C(N)=O)[C@@H](C)CC [compound 69] (H-IVLSLDVPIGLLQILLEQARARAAREQAK([AEEA-AEEA-γGlu-γGlu-C20 diacid])TNAEI[Nle]AEI-NH2)
